# Laboratory results from ChEMBL document CHEMBL4024737, “Iodine catalyzed three component synthesis of 1-((2-hydroxy naphthalen-1-yl)(phenyl)(methyl))pyrrolidin-2-one derivatives: Rationale as potent PI3K inhibitors and anticancer agents” (Bioorg Med Chem Lett, 2017).
# Activity calls are given as the source filed them. The calls are words filed in the database; no cut-off is given here.
# Experiments:
# [1] = target: T1, Phosphatidylinositol 4,5-bisphosphate 3-kinase catalytic subunit alpha isoform (Homo sapiens, UniProt P42336); assay: Inhibition of PI3K p110alpha (unknown origin) using PIP2 as substrate preincubated for 10 mins followed by substrate addition measured after 1 hr
# MCF7 = assay: Growth inhibition of human MCF7 cells by MTT assay; type: functional, cell-based; conditions: for IC50: Homo sapiens, MCF7
# HCT-116 = assay: Growth inhibition of human HCT116 cells by MTT assay; type: functional, cell-based; conditions: for IC50: Homo sapiens, HCT-116
# [2] = target: T1, Phosphatidylinositol 4,5-bisphosphate 3-kinase catalytic subunit alpha isoform; assay: Inhibition of PI3K p110alpha (unknown origin) assessed as residual activity using PIP2 as substrate preincubated for 10 mins followed by substrate addition measured after 1 hr relative to control; parameters: concentration or dose not given beside the values
# T1 sequence (P42336 whole entry, canonical isoform): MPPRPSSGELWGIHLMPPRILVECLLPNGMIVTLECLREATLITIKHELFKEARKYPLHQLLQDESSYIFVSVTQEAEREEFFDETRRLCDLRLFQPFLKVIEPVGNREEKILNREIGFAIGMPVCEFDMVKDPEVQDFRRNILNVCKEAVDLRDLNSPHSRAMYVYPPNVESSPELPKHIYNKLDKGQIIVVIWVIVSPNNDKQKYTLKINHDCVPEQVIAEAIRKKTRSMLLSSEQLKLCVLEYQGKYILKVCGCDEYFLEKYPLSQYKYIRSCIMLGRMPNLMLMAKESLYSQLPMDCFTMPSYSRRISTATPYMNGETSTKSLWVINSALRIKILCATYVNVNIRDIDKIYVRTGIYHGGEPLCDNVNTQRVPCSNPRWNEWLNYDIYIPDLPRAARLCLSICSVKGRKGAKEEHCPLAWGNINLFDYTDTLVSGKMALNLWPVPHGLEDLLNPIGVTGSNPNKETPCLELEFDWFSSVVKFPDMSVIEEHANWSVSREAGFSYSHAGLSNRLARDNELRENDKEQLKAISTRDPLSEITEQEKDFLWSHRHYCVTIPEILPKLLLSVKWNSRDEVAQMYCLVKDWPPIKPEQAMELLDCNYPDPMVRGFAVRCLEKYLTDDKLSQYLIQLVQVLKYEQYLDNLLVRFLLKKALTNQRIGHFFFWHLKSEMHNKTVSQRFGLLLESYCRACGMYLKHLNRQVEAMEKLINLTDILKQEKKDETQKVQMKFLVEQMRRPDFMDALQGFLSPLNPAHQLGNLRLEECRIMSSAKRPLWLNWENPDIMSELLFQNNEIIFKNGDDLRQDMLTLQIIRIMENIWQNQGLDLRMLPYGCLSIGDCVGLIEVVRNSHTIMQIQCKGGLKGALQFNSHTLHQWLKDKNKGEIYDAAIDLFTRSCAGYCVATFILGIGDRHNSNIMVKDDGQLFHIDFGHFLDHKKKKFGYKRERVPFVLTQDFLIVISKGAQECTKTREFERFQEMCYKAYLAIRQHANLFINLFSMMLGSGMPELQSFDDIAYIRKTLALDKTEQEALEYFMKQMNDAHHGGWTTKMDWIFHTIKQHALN
SMILES,IC50 [1],growth inhibition (GI) (MCF7),IC50 (MCF7),growth inhibition (GI) (HCT-116),IC50 (HCT-116),Activity [2]
O=C1CCCN1C(c1ccc(F)cc1)c1c(O)ccc2ccccc12 (centres undefined),≥ 0.05 µM,80.23%,0.981 µM,60.92%,6.98 µM,83%
COc1ccccc1C(c1c(O)ccc2ccccc12)N1CCCC1=O (centres undefined),≥ 25 µM,21.81%,92.1 µM,inactive,–,22%
N#Cc1ccc(C(c2c(O)ccc3ccccc23)N2CCCC2=O)cc1 (centres undefined),≥ 25 µM,33.41%,80.3 µM,inactive,–,28%
COc1cccc(C(c2c(O)ccc3ccccc23)N2CCCC2=O)c1 (centres undefined),≥ 15 µM,39.71%,15.2 µM,24.55%,15.2 µM,46%
O=C1CCCN1C(c1ccccc1Cl)c1c(O)ccc2ccccc12 (centres undefined),≥ 5 µM,55.01%,6.58 µM,40.12%,26.6 µM,55%
COc1ccc(C(c2c(O)ccc3ccccc23)N2CCCC2=O)cc1 (centres undefined),≥ 10 µM,38.98%,12 µM,56.44%,12 µM,38%
O=C1CCCN1C(c1ccc(O)cc1)c1c(O)ccc2ccccc12 (centres undefined),≥ 25 µM,30.98%,31 µM,28.14%,31 µM,28%
COc1cccc2c1C(=O)c1c(O)c3c(c(O)c1C2=O)C[C@@](O)(C(=O)CO)C[C@@H]3O[C@H]1C[C@H](N)[C@H](O)[C@H](C)O1 [DOXORUBICIN],–,77.98%,–,inactive,–,–
O=C1CCCN1C(c1ccccc1Br)c1c(O)ccc2ccccc12 (centres undefined),≥ 0.05 µM,76.06%,1.03 µM,48.12%,12.9 µM,79%
O=C1CCCN1C(c1ccc(Br)cc1)c1c(O)ccc2ccccc12 (centres undefined),≥ 15 µM,41.22%,16.6 µM,20.22%,17.6 µM,44%
COC[C@H]1OC(=O)c2coc3c2[C@@]1(C)C1=C(C3=O)[C@@H]2CCC(=O)[C@@]2(C)C[C@H]1OC(C)=O,–,–,–,–,–,76%
O=C1CCCN1C(c1ccccc1)c1c(O)ccc2ccccc12 (centres undefined),≥ 25 µM,25.46%,82.2 µM,inactive,–,32%
O=C1CCCN1C(c1ccc(Cl)cc1)c1c(O)ccc2ccccc12 (centres undefined),< 25 µM,23.14%,92.2 µM,inactive,–,42%
O=C1CCCN1C(c1ccccc1F)c1c(O)ccc2ccccc12 (centres undefined),≥ 5 µM,60.38%,4.81 µM,37.38%,14.8 µM,56%
Cc1ccc(C(c2c(O)ccc3ccccc23)N2CCCC2=O)cc1 (centres undefined),< 5 µM,56.46%,4.81 µM,26.28%,24.8 µM,52%
O=C1CCCN1C(c1ccc(Cl)cc1Cl)c1c(O)ccc2ccccc12 (centres undefined),< 1 µM,61.71%,4.23 µM,28.26%,14.2 µM,62%
O=C1CCCN1C(c1cccs1)c1c(O)ccc2ccccc12 (centres undefined),≥ 25 µM,30.01%,81.1 µM,inactive,–,24%
O=C1CCCN1C(c1cccc2ccccc12)c1c(O)ccc2ccccc12 (centres undefined),< 5 µM,60.46%,4.47 µM,36.14%,24.8 µM,59%
O=C1CCCN1C(c1ccc(O)cc1O)c1c(O)ccc2ccccc12 (centres undefined),≥ 25 µM,35.02%,84.7 µM,inactive,–,22%
